Legend:
MDA-MB-231 [1] = assay: Antiproliferative activity against human MDA-MB-231 cells assessed as inhibition of cell growth at 20 uM incubated for 48 hrs by MTT assay; assay type: functional
HCT-116 [2] = assay: Antiproliferative activity against human HCT-116 cells assessed as inhibition of cell growth at 20 uM incubated for 48 hrs by MTT assay; assay type: functional
HeLa [3] = assay: Antiproliferative activity against human HeLa cells assessed as inhibition of cell growth at 20 uM incubated for 48 hrs by MTT assay; assay type: functional
A549 [4] = assay: Antiproliferative activity against human A549 cells assessed as inhibition of cell growth at 20 uM incubated for 48 hrs by MTT assay; assay type: functional
A-375 [5] = assay: Antiproliferative activity against human A-375 cells assessed as inhibition of cell growth at 20 uM incubated for 48 hrs by MTT assay; assay type: functional
MDA-MB-231 [6] = assay: Antiproliferative activity against human MDA-MB-231 cells assessed as inhibition of cell growth incubated for 48 hrs by MTT assay; assay type: functional, cell-based; conditions: MDA-MB-231, 48 h
HeLa [7] = assay: Antiproliferative activity against human HeLa cells assessed as inhibition of cell growth incubated for 48 hrs by MTT assay; assay type: functional, cell-based
A549 [8] = assay: Antiproliferative activity against human A549 cells assessed as inhibition of cell growth incubated for 48 hrs by MTT assay; assay type: functional, cell-based; conditions: A549, 48 h
A-375 [9] = assay: Antiproliferative activity against human A-375 cells assessed as inhibition of cell growth incubated for 48 hrs by MTT assay; assay type: functional, cell-based; conditions: A-375, 48 h
HCT-116 [10] = assay: Potency index, ratio of olaparib IC50 to test compound IC50 for antiproliferative activity against human HCT-116 cells; assay type: functional
L02 = assay: Antiproliferative activity against human L02 cells assessed as inhibition of cell growth […] incubated for 48 hrs by MTT assay; assay type: functional, cell-based; conditions: L02, 48 h
[11] = target: Poly [ADP-ribose] polymerase 1 (Homo sapiens, UniProt P09874); assay: Inhibition of PARP1 (unknown origin) by ELISA
Poly [ADP-ribose] polymerase 1, sequence (P09874 whole entry): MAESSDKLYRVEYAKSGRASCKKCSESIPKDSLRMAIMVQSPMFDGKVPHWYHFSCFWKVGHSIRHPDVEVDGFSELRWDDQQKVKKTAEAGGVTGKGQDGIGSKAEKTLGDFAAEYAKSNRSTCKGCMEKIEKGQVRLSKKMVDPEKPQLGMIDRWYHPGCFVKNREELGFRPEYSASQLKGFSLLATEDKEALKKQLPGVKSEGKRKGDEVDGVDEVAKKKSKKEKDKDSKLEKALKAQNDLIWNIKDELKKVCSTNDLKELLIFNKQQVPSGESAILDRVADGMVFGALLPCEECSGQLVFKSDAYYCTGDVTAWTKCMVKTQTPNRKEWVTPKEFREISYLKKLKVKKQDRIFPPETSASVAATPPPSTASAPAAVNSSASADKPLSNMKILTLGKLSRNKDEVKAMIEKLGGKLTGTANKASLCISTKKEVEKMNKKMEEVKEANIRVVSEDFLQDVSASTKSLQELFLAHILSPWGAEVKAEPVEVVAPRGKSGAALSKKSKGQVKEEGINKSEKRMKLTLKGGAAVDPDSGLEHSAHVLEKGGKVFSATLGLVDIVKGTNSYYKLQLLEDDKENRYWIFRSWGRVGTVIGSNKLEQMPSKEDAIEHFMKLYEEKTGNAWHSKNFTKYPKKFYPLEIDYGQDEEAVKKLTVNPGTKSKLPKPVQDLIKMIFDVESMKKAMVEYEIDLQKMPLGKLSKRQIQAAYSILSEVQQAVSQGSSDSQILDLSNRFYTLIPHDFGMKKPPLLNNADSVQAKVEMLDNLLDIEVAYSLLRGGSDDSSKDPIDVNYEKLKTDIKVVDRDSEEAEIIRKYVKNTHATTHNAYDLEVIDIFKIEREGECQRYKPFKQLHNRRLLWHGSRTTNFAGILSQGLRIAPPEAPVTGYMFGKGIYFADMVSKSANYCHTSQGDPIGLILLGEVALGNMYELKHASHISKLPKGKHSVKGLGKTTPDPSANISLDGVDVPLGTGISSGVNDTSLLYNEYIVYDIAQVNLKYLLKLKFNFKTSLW

HCT-116 [12] = assay: Inhibition of colony formation in human HCT-116 cells measured every 3 days for 14 days by crystal violet staining based assay; assay type: functional, cell-based; conditions: dose 1.88-15 µM, time 14.0 day
HCT-116 [13] = assay: Inhibition of colony formation in human HCT-116 cells at 7.5 uM measured every 3 days for 14 days by crystal violet staining based assay; assay type: functional; conditions: HCT-116, 336 h, time 14 day
HCT-116 [14] = assay: Inhibition of colony formation in human HCT-116 cells at 10 uM measured every 3 days for 14 days by crystal violet staining based assay; assay type: functional; conditions: HCT-116, 336 h, time 14 day
HCT-116 [15] = assay: Inhibition of cell migration in human HCT-116 cells at 7.5 uM incubated for 24 hrs by wound healing assay (reference value: 32.0 %); assay type: functional
HCT-116 [16] = assay: Inhibition of cell migration in human HCT-116 cells at 7.5 uM incubated for 48 hrs by wound healing assay (reference value: 42.8 %); assay type: functional
HCT-116 [17] = assay: Inhibition of cell migration in human HCT-116 cells at 15 uM incubated for 24 hrs by wound healing assay (reference value: 32.0 %); assay type: functional
HCT-116 [18] = assay: Inhibition of cell migration in human HCT-116 cells at 15 uM incubated for 48 hrs by wound healing assay (reference value: 42.8 %); assay type: functional
HCT-116 [19] = assay: Induction of cell cycle arrest in human HCT-116 cells assessed as accumulation of cells at G2/M phase at 7.5 to 10 uM incubated for 48 hrs by propidium iodide staining based flow cytometry analysis (reference value: 27.84 %); assay type: functional; conditions: dose 7.5-10 µM
HCT-116 [20] = assay: Induction of cell cycle arrest in human HCT-116 cells assessed as decrease in cells at G0/G1 phase at 7.5 to 10 uM incubated for 48 hrs by propidium iodide staining based flow cytometry analysis (reference value: 66.42 %); assay type: functional; design: scale not given: the % may be the effect or the level left; conditions: dose 7.5-10 µM
HCT-116 [21] = assay: Induction of apoptosis in human HCT-116 cells assessed as viable cells at 3.75 uM incubated for 48 hrs by Annexin-V and PI staining based flow cytometry analysis (reference value: 98.60%); assay type: functional; conditions: read-out: Activity
HCT-116 [22] = assay: Induction of apoptosis in human HCT-116 cells assessed as early apoptotic cells at 3.75 uM incubated for 48 hrs by Annexin-V and PI staining based flow cytometry analysis (reference value: 1.26%); assay type: functional
HCT-116 [23] = assay: Induction of apoptosis in human HCT-116 cells assessed as late apoptotic cells at 3.75 uM incubated for 48 hrs by Annexin-V and PI staining based flow cytometry analysis (reference value: 0.06%); assay type: functional
HCT-116 [24] = assay: Induction of apoptosis in human HCT-116 cells assessed as necrotic cells at 3.75 uM incubated for 48 hrs by Annexin-V and PI staining based flow cytometry analysis (reference value: 0.06%); assay type: functional
HCT-116 [25] = assay: Induction of apoptosis in human HCT-116 cells assessed as viable cells at 7.5 uM incubated for 48 hrs by Annexin-V and PI staining based flow cytometry analysis (reference value: 98.60%); assay type: functional; conditions: read-out: Activity
HCT-116 [26] = assay: Induction of apoptosis in human HCT-116 cells assessed as early apoptotic cells at 7.5 uM incubated for 48 hrs by Annexin-V and PI staining based flow cytometry analysis (reference value: 1.26%); assay type: functional
HCT-116 [27] = assay: Induction of apoptosis in human HCT-116 cells assessed as late apoptotic cells at 7.5 uM incubated for 48 hrs by Annexin-V and PI staining based flow cytometry analysis (reference value: 0.06%); assay type: functional
HCT-116 [28] = assay: Induction of apoptosis in human HCT-116 cells assessed as necrotic cells at 7.5 uM incubated for 48 hrs by Annexin-V and PI staining based flow cytometry analysis (reference value: 0.06%); assay type: functional
HCT-116 [29] = assay: Induction of apoptosis in human HCT-116 cells assessed as viable cells at 15 uM incubated for 48 hrs by Annexin-V and PI staining based flow cytometry analysis (reference value: 98.60%); assay type: functional; conditions: read-out: Activity
HCT-116 [30] = assay: Induction of apoptosis in human HCT-116 cells assessed as early apoptotic cells at 15 uM incubated for 48 hrs by Annexin-V and PI staining based flow cytometry analysis (reference value: 1.26%); assay type: functional
HCT-116 [31] = assay: Induction of apoptosis in human HCT-116 cells assessed as late apoptotic cells at 15 uM incubated for 48 hrs by Annexin-V and PI staining based flow cytometry analysis (reference value: 0.06%); assay type: functional
HCT-116 [32] = assay: Induction of apoptosis in human HCT-116 cells assessed as necrotic cells at 15 uM incubated for 48 hrs by Annexin-V and PI staining based flow cytometry analysis (reference value: 0.06%); assay type: functional

## NC(=O)c1ccccc1NCc1cccc(NC(=O)Nc2cccc(Br)c2)c1
MDA-MB-231 [1]
  inhibition at 20 µM: 86.8%
HCT-116 [2]
  inhibition at 20 µM: 91%
HeLa [3]
  inhibition at 20 µM: 72.2%
A549 [4]
  inhibition at 20 µM: 78.8%
A-375 [5]
  inhibition at 20 µM: 81.8%
MDA-MB-231 [6]
  IC50: 13.7 µM
HeLa [7]
  IC50: 14.3 µM
A549 [8]
  IC50: 12.4 µM
A-375 [9]
  IC50: 15.1 µM
HCT-116 [10]
  Ratio IC50: 7.87
L02
  IC50: 100 µM
[11]
  IC50: 0.00517 µM
HCT-116 [12]
  inhibition: Dose-Dependent Effect
HCT-116 [13]
  inhibition at 7.5 µM: 100%
HCT-116 [14]
  inhibition at 10 µM: 100%
HCT-116 [15]
  inhibition at 7.5 µM: 21%
HCT-116 [16]
  inhibition at 7.5 µM: 23.3%
HCT-116 [17]
  inhibition at 15 µM: 14.7%
HCT-116 [18]
  inhibition at 15 µM: 24.2%
HCT-116 [19]
  Activity: 34.6%
HCT-116 [20]
  Activity: 55.94%
HCT-116 [21]
  viability at 3.75 µM: 89.8%
HCT-116 [22]
  Activity: 9.81%
HCT-116 [23]
  Activity: 0.29%
HCT-116 [24]
  Activity: 0.1%
HCT-116 [25]
  viability at 7.5 µM: 86.3%
HCT-116 [26]
  Activity: 12.93%
HCT-116 [27]
  Activity: 0.7%
HCT-116 [28]
  Activity: 0.1%
HCT-116 [29]
  viability at 15 µM: 54.5%
HCT-116 [30]
  Activity: 42.85%
HCT-116 [31]
  Activity: 2.2%
HCT-116 [32]
  Activity: 0.43%

Reference: ChEMBL document CHEMBL5352439, “Design, synthesis, biological evaluation and molecular docking study of novel urea-based benzamide derivatives as potent poly(ADP-ribose) polymerase-1 (PARP-1) inhibitors” (Eur J Med Chem, 2022)
